According to ChEMBL document CHEMBL2311308, “From partial to full agonism: identification of a novel 2,4,5,6-tetrahydropyrrolo[3,4-c]pyrazole as a full agonist of the human GPR119 receptor” (Bioorg Med Chem Lett, 2013):

Legend:
[1] = target: T1, Glucose-dependent insulinotropic receptor (Homo sapiens, UniProt Q8TDV5); assay: Agonist activity at human GPR119 expressed in HEK293 cells co-expressing CRE beta-lactamase assessed as cAMP accumulation by HTRF assay; assay type: functional, cell-based
T1 sequence (Q8TDV5 whole entry): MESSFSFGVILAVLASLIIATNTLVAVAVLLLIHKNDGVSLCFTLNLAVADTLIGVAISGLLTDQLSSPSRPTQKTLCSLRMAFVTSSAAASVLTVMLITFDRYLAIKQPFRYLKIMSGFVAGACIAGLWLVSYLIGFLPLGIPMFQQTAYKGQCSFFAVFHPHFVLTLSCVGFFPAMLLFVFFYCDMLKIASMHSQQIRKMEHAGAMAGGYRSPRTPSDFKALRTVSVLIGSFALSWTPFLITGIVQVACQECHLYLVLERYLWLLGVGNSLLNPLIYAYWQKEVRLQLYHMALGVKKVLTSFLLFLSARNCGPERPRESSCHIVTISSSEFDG

[2] = target: T2, Glucose-dependent insulinotropic receptor (Homo sapiens) (UniProt Q8TDV5); assay: Intrinsic activity at human recombinant GPR119 expressed in HEK293 cells co-expressing CRE beta-lactamase assessed as cAMP accumulation at 10 uM by HTRF assay relative to control; assay type: functional, cell-based
T2 sequence (whole entry): T1 sequence (Q8TDV5 whole entry)

physchem = settings: buffer, pH 7.4
[3] = Intrinsic clearance in human liver microsomes; assay type: ADME, Microsome; settings: read-out: CLH

| SMILES | EC50 [1] [nM] | Intrinsic activity [2] [%] | logD (physchem) | microsomal CLint [3] [µL/min/mg] |
| --- | --- | --- | --- | --- |
| CC(C)COC(=O)N1CCC(n2cc(CNc3ccc(S(C)(=O)=O)cc3F)cn2)CC1 | 240 | 24 | 2.8 |  |
| Cc1nc(S(C)(=O)=O)ccc1NCc1cnn(C2CCN(C(=O)OC(C)C)CC2)c1 | > 10000 |  | 1.6 |  |
| CC(C)OC(=O)N1CCC(n2cc(CNc3ccc(S(C)(=O)=O)cc3F)cn2)CC1 | 181 | 41 | 2.3 | 9.7 |
| CS(=O)(=O)c1ccc(NCc2cnn(C3CCN(C(=O)OC4CCC4)CC3)c2)c(F)c1 | 462 | 42 | 2.5 |  |
| CCc1cnc(OC(=O)N2CCC(n3cc(CNc4ccc(S(C)(=O)=O)cc4F)cn3)CC2)nc1 | 47 | 43 | 3 | 148 |

Second part, the molecule after the results:

| EC50 [1] [nM] | Intrinsic activity [2] [%] | logD (physchem) | microsomal CLint [3] [µL/min/mg] | SMILES |
| --- | --- | --- | --- | --- |
| 260 | 48 | 3.2 | 36.1 | CC(C)OC(=O)N1CCC(n2cc3c(n2)CN(c2ccc(S(C)(=O)=O)cc2F)C3)CC1 |
| 498 | 107 | 1.1 | 9.8 | CCc1cnc(N2CCC([N+]3([O-])Cc4cn(-c5ccc(S(C)(=O)=O)cc5F)nc4C3)CC2)nc1 (stereo unspecified) |
| 864 | 105 |  | 10.5 | CC(C)OC(=O)N1CCC(N2Cc3cn(-c4ccc(S(C)(=O)=O)cc4F)nc3C2)CC1 |
| 83 | 118 | 2.9 | 23 | CCc1cnc(N2CCC(N3Cc4cn(-c5ccc(S(C)(=O)=O)cc5F)nc4C3)CC2)nc1 |
